We go through three molecules from patent US20200362301A1, “EFFICIENT, SCALABLE PRODUCTION OF HUMAN RETINAL PROGENITORS IN VITRO” (Wisconsin Alumni Research Foundation, priority 2019, published 2020).

What all share (assay type): cell-based, human
Experiment [1] concerns PAX6D TetOn cells. Description: qPCR of retinal gene expression in PAX6D TetOn cells with DOX induction, with or without WNT agonist. From the text:
(§1) We then examined the retinal progenitor population when PAX6A or PAX6D was induced. We turned on PAX6A and PAX6D separately in PAX6 KO cells after neuroepithelial cells were generated at day 6 and monitored the retinal progenitor generation along retinal differentiation. […] Thus, PAX6D but not PAX6A restores the PAX6 function in retinal specification.
(§2) We then asked if the failure of retinal specification in the PAX6D KO cells is rescued by regulating WNT signaling. Treatment of the PAX6D KO cells with IWR1 during retinal differentiation from day 0 to day 10 increased the expression of retinal related genes, including VSX2, LHX2, HES5, SIX3 and SIX6 (FIG. 8C). […] To further corroborate the role of WNTs in mediating the function of PAX6D in retinal specification, we then activated WNT pathway signaling under PAX6D induction along retinal differentiation.
(§3) PAX6 KO and PAX6D KO cell lines were designed by inserting the PGK-Puromycin in exon 8 and exon alpha of the PAX6 gene, respectively, which terminates the normal translation of PAX6 genes early and PAX6D isoform specifically. The PAX6 KO cells were then used to generate PAX6A TetOn and PAX6D TetOn by inserting the TetOn-PAX6A-3×FLAG and TetOn-PAX6D-3×FLAG into the AAVS1 site of PAX6 KO genome.
Retinal differentiation from human pluripotent stem cells was performed using the published protocol (Zhong et al., 2014). Briefly, hESCs were passaged to Vitronectin-coated plates and cultured to 60-70% confluency. On day 0 of retinal differentiation, cells were enzymatically detached by dispase (1 mg/ml) and cultured in suspension with E8 medium to form embryoid bodies (EB). EBs were gradually transitioned into neural induction medium (NIM) containing DMEM/F12 (1:1), 1% N2 and 1×NEAA by replacing the medium with a 3:1 ratio of E8/NIM on day 1, 1:1 on day 2, and 100% NIM on day 3. […]
(§4) Total RNA was isolated with the RNeasy Plus Mini Kit according to the manufacturer's instructions. For quantitative PCR (qPCR), cDNA was synthesized using PrimeScrip RT Reagent Kit. qPCR was performed using iTaq Universal SYBR Green Supermix. […]

Experiment [2] deals with PAX6D TetOn cells. Description: Flow cytometry of SOX1-/SOX2+ retinal progenitor population in PAX6D TetOn cells. To be noted: PAX6D induced (from 2.71% without induction). How it is done:
as §1
(§5) Flow cytometry was performed using Transcription Factor Buffer Set which is designed for transcription factor staining following manufacturer's instruction. Briefly, single cells were prepared using TrypLE Express Enzyme and fixed in the fixation buffer provided by the kit at 2-8° C. for 45 min. After 3 washings with the permeable buffer, the primary antibodies (PE-SOX1, V450-SOX2) were added to cells for 45 min at 2-8° C. in a light-tight box. The cells were washed 3 times before analyzed by flow cytometry (BD LSR or BD LSRII). Data analysis was performed using FlowJo.

Experiment [3] has as its system PAX6A TetOn cells. Put plainly: Flow cytometry of SOX1-/SOX2+ retinal progenitor population in PAX6A TetOn cells. To be noted: PAX6A induced (from 2.45% without induction). How it is done: as §1, §5
For orientation: Flow cytometry measures light scatter and fluorescence of single cells or particles in a stream.

The subject of experiment [4] is wildtype cells (H9 hESCs) in retinal differentiation. Put plainly: qPCR of retinal gene (EFTF) expression in wildtype cells during retinal differentiation under WNT agonist/antagonist. The method, then:
WNT8B has a restricted expression in the developing dorsal forebrain (Lako et al., 1998) and plays a repressive role in retinal fate specification (Liu et al., 2010). […] Given the direct connection between PAX6D and WNT8B, we hypothesized that PAX6D regulates retinal specification by repressing WNT8B transcription and thus WNT activity. Indeed, treatment with WNT agonist (CHIR99021, 3 μM) in wildtype cells from day 0 to day 10 suppressed the expression EFTFs. In contrast, treatment with a WNT antagonist (IWR1, 2.5 μM) in wildtype cells enhanced the expression of EFTFs (FIG. 8B).
Retinal differentiation from human pluripotent stem cells was performed using the published protocol (Zhong et al., 2014). Briefly, hESCs were passaged to Vitronectin-coated plates and cultured to 60-70% confluency. On day 0 of retinal differentiation, cells were enzymatically detached by dispase (1 mg/ml) and cultured in suspension with E8 medium to form embryoid bodies (EB). […]
as §4

For experiment [5], the system named is PAX6D KO cells. Description: qPCR of retinal gene expression in PAX6D KO cells treated with WNT antagonist (rescue of retinal differentiation). Particulars: treatment from day 0 to day 10 of retinal differentiation.
From the text: as §2, §3
Retinal differentiation from human pluripotent stem cells was performed using the published protocol (Zhong et al., 2014). Briefly, hESCs were passaged to Vitronectin-coated plates and cultured to 60-70% confluency. […]
as §4

Setting [6] is: PAX6D TetOn in PAX6 KO, DOX for 7 days from day 6 of retinal differentiation.

Molecules are shown by their SMILES.

Turning to `C[C@H]1c2cccc(O)c2C(=O)C2=C(O)[C@]3(O)C(=O)C(C(N)=O)=C(O)[C@@H](N(C)C)[C@@H]3[C@@H](O)[C@@H]21` [DOX, doxycycline], in experiment [1] (setting [6]), the VAX2 expression increase is listed as 2 fold. The same molecule returned a VSX2 expression increase in experiment [1] (setting [6]) of 3 fold. Further, the “SOX1-/SOX2+ retinal progenitor population (flow cytometry)” value in experiment [2] was 23.1%; in experiment [3], 2.22%.
For the molecule `Cc1c[nH]c(-c2cnc(NCCNc3ccc(C#N)cn3)nc2-c2ccc(Cl)cc2Cl)n1` [CHIR99021], in experiment [4] (WNT agonist 3 μM from day 0 to day 10 of retinal differentiation), the “expression of EFTFs (qPCR)” value is on record as “suppressed”. Further, the “PAX6D-induced retinal differentiation (expression of VSX2, LHX2, SIX6, NR2F1 and VAX2 at day 10)” value in experiment [1] (PAX6D TetOn cells induced by DOX, WNT agonist from day 0 to day 10) is given as “completely blocked”.
On to `O=C(Nc1cccc2cccnc12)c1ccc(N2C(=O)[C@@H]3[C@H](C2=O)[C@@H]2C=C[C@H]3C2)cc1` [IWR1], for which the “expression of EFTFs (qPCR)” value in experiment [4] (WNT antagonist 2.5 μM) is given as “enhanced”. Also, the “expression of retinal related genes, including VSX2, LHX2, HES5, SIX3 and SIX6” value in experiment [5] is given as “increased”.
